Earlier results, collected in patent US6132766A, “Multivesicular liposomes with controlled release of encapsulated biologically active substances” (priority 1998, dated 2000).

Columns and labels:
[1] = unencapsulated drug; about
[2] = tested on: strains of both gram negative and gram positive bacteria; details: background statement

NCC[C@H](O)C(=O)N[C@@H]1C[C@H](N)[C@@H](O[C@H]2O[C@H](CN)[C@@H](O)[C@H](O)[C@H]2O)[C@H](O)[C@H]1O[C@H]1O[C@H](CO)[C@@H](O)[C@H](N)[C@H]1O [amikacin]
serum half-life [1]: two to three
activity against strains of both gram negative and gram positive bacteria [2]: clinically significant activity
